Source: ChEMBL document CHEMBL5042544, “Discovery of a Potent and Selective ATAD2 Bromodomain Inhibitor with Antiproliferative Activity in Breast Cancer Models” (J Med Chem, 2022)
Active and inactive are the calls of the source. The calls are words filed in the database; no cut-off is given here.

Assays:
[1] = target: T1, ATPase family AAA domain-containing protein 2 (Homo sapiens, UniProt Q6PL18); assay: Displacement of Halo-tagged Histone H3.3 from Nanoluc-ATAD2 BD (962 to 1119 residues) (unknown origin) transfected in human HCT116 cells incubated for 18 hrs in presence of efflux inhibitor verapamil by NanoBRET assay; assay type: cell-based, HCT-116
T1 sequence (Q6PL18 whole entry): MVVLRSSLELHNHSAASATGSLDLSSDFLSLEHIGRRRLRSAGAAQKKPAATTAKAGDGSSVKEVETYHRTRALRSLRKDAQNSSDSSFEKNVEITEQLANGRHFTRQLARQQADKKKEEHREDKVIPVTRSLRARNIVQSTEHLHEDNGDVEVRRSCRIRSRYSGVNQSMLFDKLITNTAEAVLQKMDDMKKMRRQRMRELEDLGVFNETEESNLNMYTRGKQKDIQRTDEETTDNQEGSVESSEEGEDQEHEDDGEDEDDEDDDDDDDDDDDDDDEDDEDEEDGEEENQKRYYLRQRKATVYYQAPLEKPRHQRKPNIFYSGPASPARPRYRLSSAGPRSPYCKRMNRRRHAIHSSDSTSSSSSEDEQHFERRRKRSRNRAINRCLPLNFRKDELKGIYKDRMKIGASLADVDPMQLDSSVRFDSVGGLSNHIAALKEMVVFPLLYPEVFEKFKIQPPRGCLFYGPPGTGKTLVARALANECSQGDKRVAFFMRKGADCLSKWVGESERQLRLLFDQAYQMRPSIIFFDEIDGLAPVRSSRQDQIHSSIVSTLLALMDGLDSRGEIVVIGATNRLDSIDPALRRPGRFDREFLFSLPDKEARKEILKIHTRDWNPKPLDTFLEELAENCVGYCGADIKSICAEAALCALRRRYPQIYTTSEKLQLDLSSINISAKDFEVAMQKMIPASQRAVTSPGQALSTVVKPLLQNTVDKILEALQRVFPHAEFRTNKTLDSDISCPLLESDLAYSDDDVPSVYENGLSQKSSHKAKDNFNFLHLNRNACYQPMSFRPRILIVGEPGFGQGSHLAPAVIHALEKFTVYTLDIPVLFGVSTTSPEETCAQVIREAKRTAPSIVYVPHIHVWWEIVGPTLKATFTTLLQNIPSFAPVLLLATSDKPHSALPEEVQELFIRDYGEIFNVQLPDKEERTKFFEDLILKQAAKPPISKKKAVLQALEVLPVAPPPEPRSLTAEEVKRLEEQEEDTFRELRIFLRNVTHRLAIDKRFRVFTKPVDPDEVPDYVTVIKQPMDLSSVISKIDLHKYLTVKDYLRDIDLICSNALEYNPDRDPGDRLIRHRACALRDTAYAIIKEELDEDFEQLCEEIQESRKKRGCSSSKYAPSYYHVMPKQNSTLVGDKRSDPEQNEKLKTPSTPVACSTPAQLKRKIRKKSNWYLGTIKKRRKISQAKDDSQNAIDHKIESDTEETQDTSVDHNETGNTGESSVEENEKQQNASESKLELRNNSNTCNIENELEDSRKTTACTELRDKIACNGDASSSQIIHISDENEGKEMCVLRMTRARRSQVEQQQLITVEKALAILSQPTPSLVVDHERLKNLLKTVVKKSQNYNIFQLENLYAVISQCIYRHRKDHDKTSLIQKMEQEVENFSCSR

[2] = target: ATPase family AAA domain-containing protein 2B (Homo sapiens) (UniProt Q9ULI0); assay: Binding affinity to human ATAD2B bromodomain assessed as residual activity at 300 nM by BROMOscan method relative to control
[3] = target: T2, Bromodomain-containing protein 2 (Homo sapiens, UniProt P25440); assay: Binding affinity to human BRD2 bromodomain 1 assessed as residual activity at 300 nM by BROMOscan method relative to control
[4] = target: Bromodomain and PHD finger-containing protein 3 (Homo sapiens) (UniProt Q9ULD4); assay: Binding affinity to human […] bromodomain assessed as residual activity at 300 nM by BROMOscan method relative to control
[5] = target: Chromatin remodeling regulator CECR2 (Homo sapiens, UniProt Q9BXF3); assay: Binding affinity to human CECR2 bromodomain assessed as residual activity at 300 nM by BROMOscan method relative to control
[6] = target: T3, Histone acetyltransferase p300 (Homo sapiens, UniProt Q09472); assay: Binding affinity to human EP300 bromodomain assessed as residual activity at 300 nM by BROMOscan method relative to control
[7] = target: T4, Protein polybromo-1 (Homo sapiens, UniProt Q86U86); assay: Binding affinity to human PBRM1 bromodomain 5 assessed as residual activity at 300 nM by BROMOscan method relative to control
T4 sequence (Q86U86 whole entry): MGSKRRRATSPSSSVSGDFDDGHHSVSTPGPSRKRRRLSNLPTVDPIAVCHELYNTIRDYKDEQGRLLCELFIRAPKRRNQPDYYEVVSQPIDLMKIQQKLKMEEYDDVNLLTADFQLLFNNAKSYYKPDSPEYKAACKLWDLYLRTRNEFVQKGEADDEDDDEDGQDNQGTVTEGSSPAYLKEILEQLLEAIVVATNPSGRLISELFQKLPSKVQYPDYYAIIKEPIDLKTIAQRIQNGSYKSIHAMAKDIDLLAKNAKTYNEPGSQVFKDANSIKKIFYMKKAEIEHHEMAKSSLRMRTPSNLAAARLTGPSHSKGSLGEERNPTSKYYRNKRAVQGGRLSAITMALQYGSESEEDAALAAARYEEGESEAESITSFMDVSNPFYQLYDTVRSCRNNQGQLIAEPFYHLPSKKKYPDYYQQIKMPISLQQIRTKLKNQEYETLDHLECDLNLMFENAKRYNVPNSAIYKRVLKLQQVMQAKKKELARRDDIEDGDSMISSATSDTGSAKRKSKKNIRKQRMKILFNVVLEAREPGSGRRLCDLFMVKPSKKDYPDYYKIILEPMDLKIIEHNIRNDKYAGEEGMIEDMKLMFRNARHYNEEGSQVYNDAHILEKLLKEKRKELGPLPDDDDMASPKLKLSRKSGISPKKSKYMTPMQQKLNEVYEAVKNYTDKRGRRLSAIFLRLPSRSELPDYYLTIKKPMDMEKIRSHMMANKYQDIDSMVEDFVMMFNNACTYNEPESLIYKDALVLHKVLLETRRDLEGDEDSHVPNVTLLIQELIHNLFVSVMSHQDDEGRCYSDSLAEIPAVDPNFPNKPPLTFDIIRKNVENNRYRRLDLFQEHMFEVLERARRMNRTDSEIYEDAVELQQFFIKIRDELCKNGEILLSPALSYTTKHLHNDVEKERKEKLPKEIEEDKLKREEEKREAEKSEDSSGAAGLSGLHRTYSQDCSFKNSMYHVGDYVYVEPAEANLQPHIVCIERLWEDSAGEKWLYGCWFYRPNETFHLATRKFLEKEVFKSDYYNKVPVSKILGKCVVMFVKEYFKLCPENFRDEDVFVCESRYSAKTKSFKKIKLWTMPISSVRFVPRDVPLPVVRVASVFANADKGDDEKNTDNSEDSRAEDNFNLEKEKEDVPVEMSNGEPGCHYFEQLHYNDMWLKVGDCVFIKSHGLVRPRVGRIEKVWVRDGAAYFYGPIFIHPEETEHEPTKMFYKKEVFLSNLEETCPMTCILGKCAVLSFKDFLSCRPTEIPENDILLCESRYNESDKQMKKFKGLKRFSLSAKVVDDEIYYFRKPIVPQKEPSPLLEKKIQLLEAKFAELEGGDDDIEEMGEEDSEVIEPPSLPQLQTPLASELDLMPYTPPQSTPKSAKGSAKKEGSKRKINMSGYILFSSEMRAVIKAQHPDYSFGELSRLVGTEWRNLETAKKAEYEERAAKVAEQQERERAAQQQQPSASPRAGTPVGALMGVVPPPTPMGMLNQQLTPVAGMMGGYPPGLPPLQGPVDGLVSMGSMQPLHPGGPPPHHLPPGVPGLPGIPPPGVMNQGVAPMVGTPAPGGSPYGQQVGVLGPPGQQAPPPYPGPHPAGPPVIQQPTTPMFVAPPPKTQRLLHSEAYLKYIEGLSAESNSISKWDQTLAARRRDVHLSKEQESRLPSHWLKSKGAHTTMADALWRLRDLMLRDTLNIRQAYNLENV

[8] = target: T5, Transcription initiation factor TFIID subunit 1 (Homo sapiens, UniProt P21675); assay: Binding affinity to human TAF1 bromodomain 2 assessed as residual activity at 300 nM by BROMOscan method relative to control
T5 sequence (P21675 whole entry): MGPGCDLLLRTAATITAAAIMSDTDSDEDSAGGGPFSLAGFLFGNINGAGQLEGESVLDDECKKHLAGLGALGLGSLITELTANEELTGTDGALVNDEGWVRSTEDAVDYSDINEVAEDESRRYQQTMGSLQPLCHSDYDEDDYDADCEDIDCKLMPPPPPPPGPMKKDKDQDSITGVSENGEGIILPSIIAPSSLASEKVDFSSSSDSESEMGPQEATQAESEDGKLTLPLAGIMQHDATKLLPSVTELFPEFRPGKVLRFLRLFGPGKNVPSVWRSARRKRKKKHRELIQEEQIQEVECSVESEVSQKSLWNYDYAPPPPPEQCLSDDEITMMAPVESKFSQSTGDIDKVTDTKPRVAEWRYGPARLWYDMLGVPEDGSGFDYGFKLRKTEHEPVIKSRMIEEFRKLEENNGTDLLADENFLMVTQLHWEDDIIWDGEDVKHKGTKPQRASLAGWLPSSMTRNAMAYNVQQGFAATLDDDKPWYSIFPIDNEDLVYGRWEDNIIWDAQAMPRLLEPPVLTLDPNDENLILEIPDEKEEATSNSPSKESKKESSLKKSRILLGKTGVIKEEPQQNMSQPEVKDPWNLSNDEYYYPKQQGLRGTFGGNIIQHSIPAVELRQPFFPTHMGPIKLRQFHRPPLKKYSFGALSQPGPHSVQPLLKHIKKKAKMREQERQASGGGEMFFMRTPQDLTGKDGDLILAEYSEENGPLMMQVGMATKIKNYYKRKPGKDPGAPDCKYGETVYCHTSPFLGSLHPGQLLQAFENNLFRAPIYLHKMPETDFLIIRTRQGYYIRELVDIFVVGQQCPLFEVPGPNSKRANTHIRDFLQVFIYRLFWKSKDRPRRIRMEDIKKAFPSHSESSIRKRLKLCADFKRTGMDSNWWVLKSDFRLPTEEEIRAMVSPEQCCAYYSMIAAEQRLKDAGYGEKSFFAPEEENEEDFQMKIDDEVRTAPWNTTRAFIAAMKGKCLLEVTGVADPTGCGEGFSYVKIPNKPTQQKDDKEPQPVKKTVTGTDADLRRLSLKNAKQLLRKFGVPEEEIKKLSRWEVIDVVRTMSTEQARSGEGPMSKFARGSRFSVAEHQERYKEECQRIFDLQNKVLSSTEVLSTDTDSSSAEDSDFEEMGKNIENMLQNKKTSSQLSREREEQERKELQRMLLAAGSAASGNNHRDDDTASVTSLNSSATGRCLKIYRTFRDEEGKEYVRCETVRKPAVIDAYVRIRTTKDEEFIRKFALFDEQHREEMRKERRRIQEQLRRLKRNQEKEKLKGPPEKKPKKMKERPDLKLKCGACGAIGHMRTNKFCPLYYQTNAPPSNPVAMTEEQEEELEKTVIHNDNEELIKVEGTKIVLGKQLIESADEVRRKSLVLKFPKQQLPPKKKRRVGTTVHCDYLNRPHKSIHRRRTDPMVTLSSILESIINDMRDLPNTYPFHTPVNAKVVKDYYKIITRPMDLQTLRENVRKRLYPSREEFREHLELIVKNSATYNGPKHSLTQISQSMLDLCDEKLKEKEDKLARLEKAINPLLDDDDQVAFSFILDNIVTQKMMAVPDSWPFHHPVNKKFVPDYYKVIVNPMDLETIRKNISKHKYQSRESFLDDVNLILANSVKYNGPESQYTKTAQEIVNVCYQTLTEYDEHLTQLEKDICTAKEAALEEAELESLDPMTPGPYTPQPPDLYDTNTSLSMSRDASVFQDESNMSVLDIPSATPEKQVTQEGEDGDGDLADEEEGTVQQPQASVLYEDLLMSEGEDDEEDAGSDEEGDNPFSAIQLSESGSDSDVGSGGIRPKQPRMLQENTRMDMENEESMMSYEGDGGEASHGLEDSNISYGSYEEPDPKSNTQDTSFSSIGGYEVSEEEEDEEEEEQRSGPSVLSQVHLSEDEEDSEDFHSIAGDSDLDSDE

[9] = target: Transcription intermediary factor 1-alpha (Homo sapiens) (UniProt O15164); assay: Binding affinity to human TRIM24 bromodomain assessed as residual activity at 300 nM by BROMOscan method relative to control
[10] = target: E3 ubiquitin-protein ligase TRIM33 (Homo sapiens) (UniProt Q9UPN9); assay: Binding affinity to human TRIM33 bromodomain assessed as residual activity at 300 nM by BROMOscan method relative to control
[11] = target: T2, Bromodomain-containing protein 2; assay: Binding affinity to human BRD2 bromodomain 2 assessed as dissociation constant by BROMOscan method
Target sequence in this assay (P25440 whole entry): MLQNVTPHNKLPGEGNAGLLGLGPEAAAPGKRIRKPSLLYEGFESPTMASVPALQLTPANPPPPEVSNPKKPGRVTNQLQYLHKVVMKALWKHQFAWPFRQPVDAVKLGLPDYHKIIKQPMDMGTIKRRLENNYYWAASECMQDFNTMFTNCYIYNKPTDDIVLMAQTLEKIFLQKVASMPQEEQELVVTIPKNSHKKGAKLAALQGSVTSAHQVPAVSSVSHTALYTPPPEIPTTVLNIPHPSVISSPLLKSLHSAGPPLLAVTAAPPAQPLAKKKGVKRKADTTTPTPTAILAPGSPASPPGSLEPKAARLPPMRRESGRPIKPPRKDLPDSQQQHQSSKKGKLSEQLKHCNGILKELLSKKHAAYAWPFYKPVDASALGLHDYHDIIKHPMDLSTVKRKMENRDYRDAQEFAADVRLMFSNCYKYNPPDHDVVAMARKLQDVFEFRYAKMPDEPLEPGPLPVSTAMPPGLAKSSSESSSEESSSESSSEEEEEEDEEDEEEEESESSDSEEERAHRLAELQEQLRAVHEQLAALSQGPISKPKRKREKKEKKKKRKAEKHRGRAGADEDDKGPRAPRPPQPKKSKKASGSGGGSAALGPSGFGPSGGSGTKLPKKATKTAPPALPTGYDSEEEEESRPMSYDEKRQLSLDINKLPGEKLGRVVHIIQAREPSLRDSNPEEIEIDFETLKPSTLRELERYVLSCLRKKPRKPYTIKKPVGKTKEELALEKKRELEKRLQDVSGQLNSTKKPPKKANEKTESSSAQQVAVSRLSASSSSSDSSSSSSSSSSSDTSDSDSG

[12] = target: Bromodomain-containing protein 3 (Homo sapiens, UniProt Q15059); assay: Binding affinity to human BRD3 bromodomain 2 assessed as dissociation constant by BROMOscan method
Bromodomain-containing protein 3, sequence (Q15059 whole entry): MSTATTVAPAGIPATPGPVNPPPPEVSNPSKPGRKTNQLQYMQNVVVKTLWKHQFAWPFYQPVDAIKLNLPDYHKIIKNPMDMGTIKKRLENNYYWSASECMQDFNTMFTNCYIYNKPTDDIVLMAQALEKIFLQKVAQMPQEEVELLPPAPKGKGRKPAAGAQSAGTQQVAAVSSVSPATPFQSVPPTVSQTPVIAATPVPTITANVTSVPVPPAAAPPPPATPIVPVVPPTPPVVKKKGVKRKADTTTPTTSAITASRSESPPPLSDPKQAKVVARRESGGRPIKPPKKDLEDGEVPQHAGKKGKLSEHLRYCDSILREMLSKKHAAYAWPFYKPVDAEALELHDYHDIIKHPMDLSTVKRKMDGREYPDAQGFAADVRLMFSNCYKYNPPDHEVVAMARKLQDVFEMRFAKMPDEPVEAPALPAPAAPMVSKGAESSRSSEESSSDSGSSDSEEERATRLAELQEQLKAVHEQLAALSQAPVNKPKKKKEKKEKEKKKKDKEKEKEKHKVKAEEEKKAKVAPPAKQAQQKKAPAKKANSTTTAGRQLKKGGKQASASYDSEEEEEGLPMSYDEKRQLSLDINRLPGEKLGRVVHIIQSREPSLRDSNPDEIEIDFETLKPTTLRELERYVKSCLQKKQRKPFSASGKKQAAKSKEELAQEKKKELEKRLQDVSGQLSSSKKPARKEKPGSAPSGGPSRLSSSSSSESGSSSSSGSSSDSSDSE

[13] = target: Bromodomain testis-specific protein (Homo sapiens, UniProt Q58F21); assay: Binding affinity to human BRDT bromodomain 1 assessed as dissociation constant by BROMOscan method
[14] = target: T3, Histone acetyltransferase p300; assay: Binding affinity to human EP300 bromodomain assessed as dissociation constant by BROMOscan method
[15] = target: Nucleosome-remodeling factor subunit BPTF (Homo sapiens, UniProt Q12830); assay: Binding affinity to human FALZ bromodomain by BROMOscan method
[16] = target: T4, Protein polybromo-1; assay: Binding affinity to human PBRM1 bromodomain 5 assessed as dissociation constant by BROMOscan method
[17] = target: Histone acetyltransferase KAT2B (Homo sapiens, UniProt Q92831); assay: Binding affinity to human PCAF bromodomain assessed as dissociation constant by BROMOscan method
[18] = target: T5, Transcription initiation factor TFIID subunit 1; assay: Binding affinity to human TAF1 bromodomain 2 assessed as dissociation constant by BROMOscan method
[19] = system: SK-BR-3; assay: Antiproliferative activity against human SK-BR-3 cells expressing BRD1 assessed as inhibition of colony formation at 0.01 to 10 uM measured after 14 to 21 days by alamarBlue based colony formation assay; assay type: functional, cell-based; details: dose 0.01-10 µM, time 14-21 day
[20] = system: SK-BR-3; assay: Antiproliferative activity against human SK-BR-3 cells expressing BRD2 assessed as inhibition of colony formation at 0.01 to 10 uM measured after 14 to 21 days by alamarBlue based colony formation assay; assay type: functional, cell-based; details: dose 0.01-10 µM, time 14-21 day

Cc1nnc2c(NC3CCN(CC(C)(C)F)CC3)cc(C(=O)N3[C@@H]4c5ccccc5C[C@H]3C(=O)N[C@@H]4C(C)C)nn12 was tested. Which IC50 [1] did it give?
Its IC50 is 50.1 nM.

What about the Activity [2] of the same compound?
The Activity was 0%.

And the Activity [3]?
The Activity was 47%.

And the Activity [4]?
The Activity was 66%.

What about the Activity [5] of the same compound?
The Activity was 59%.

And the Activity [6]?
Its Activity is 41%.

And the Activity [7]?
Its Activity is 52%.

What about the Activity [8] of the same compound?
The Activity was 44%.

And the Activity [9]?
The Activity was 86%.

What about the Activity [10] of the same compound?
Its Activity is 96%.

What about the Kd [11] of the same compound?
The Kd was 200 nM.

What about the Kd [12] of the same compound?
The Kd was 200 nM.

And the Kd [13]?
Its Kd is 200 nM.

What about the Kd [14] of the same compound?
The Kd was greater than 3160 nM.

What about the Kd [15] of the same compound?
The Kd was greater than 316 nM.

And the Kd [16]?
Its Kd is greater than 316 nM.

What about the Kd [17] of the same compound?
Its Kd is greater than 316 nM.

And the Kd [18]?
Its Kd is 158 nM.

What about the Activity [19] of the same compound?
Its Activity is “inactive”.

What about the Activity [20] of the same compound?
The Activity was “inactive”.
